From patent US20230295068A1, “NOVEL CYCLOALKENONE COMPOUND OR SALT THEREOF” (TAIHO PHARMACEUTICAL CO., LTD., priority 2020, published 2023) come the findings set out here.

The series relates to ND3 neuronal cell line. Nature of the series: Measurement of nerve growth stimulation effect (neurite bearing assay, neurite length assay, number of cells). Type of series: cell-based. To be noted: relative cell number, DMSO well = 1; for viability at 1 µM / viability at 3 µM / viability at 5 µM / viability at 10 µM / viability at 30 µM / viability at 100 µM: 6 hours; for Number of cells: ND3 cells, 6 h. The method, then: To evaluate the nerve growth stimulation effect, neurite bearing assay (proportion of neurite-bearing cells) and neurite length assay (neurite length) were analyzed with reference to the method of Topalli et al. (Brain Research 1030 (2004), pp. 116-124).
An ND3 neuronal cell line (European Collection of Authenticated Cell Cultures) was seeded in a DMEM medium containing 10% fetal bovine serum (0.6×10^4 cells/1 mL) in a 24-well plate. 24 hours later, the medium of seeded cells was removed, and a solution in which the compound of the present disclosure that was sequentially diluted in dimethyl sulfoxide (DMSO) was adjusted in DIEM containing 0.1% bovine serum albumin so that the DMSO final concentration was 0.1%, was added to cells (evaluation performed in duplicate). After six hours from the addition, the proportion of neurite-bearing cells (the number of cells having a neurite longer than the diameter of the cell body/number of total cells), and the neurite length per cell were analyzed. The number of total cells, proportion of neurite-bearing cells, and neurite length per cell were analyzed using a MetaMorph Neurite Outgrowth Application Module (Molecular Devices Japan K.K.). The number of cells was defined as the relative cell number, taking the number of cells per well containing DMSO as 1. The relative activity of each compound when the maximum activity of 3-(15-methoxypentadecyl)-2,4,4-trimethylcyclohexa-2-en-1-one (compound 24) in each test was defined as 1 is shown (Table 9). For the compounds for which multiple tests were conducted, the average value was shown. Data with a number of cells of 0.5 or more was also used. Accordingly, if the number of cells was less than 0.5, the neurite length per cell and the proportion of neurite-bearing cells were defined as “-”.

For `CC1=C(CCCCCCCCCCCCCCO)C(C)(C)CCC1=O` [Compound 3, 3-(14-hydroxytetradecyl)-2,4,4-trimethylcyclohex-2-en-1-one, reference compound], the viability at 1 µM worked out at 98%, the viability at 3 µM was 105%, the viability at 5 µM came to 110% and the viability at 10 µM turned out to be 108%. Further, the viability at 30 µM worked out at 11% and the viability at 100 µM stood at 13%.

Take `COCCCCCCCCCCCCCCCC1=C(C)C(=O)C=CC1(C)C` [Compound 41, 3-(15-methoxypentadecyl)-2,4,4-trimethylcyclohex-2,5-dien-1-one]: the viability at 1 µM turned out to be 110%, the viability at 3 µM was found to be 112%, the viability at 5 µM amounted to 82% and the viability at 10 µM stood at 93%. Moreover, the viability at 30 µM was determined as 109% and the viability at 100 µM is 114%.

For `CC1=C(CCCCCCCCCCCCCCCOC(F)(F)F)C(C)(C)CCC1=O` [Compound 49, 2,4,4-trimethyl-3-(15-(trifluoromethoxy)pentadecyl)-cyclohex-2-en-1-one], the viability at 1 µM was found to be 96%, the viability at 3 µM stood at 100%, the viability at 5 µM came out at 101% and the viability at 10 µM was 101%. For the same compound, the viability at 30 µM was found to be 103% and the viability at 100 µM came to 108%.

In the case of `CCOCCCCCCCCCCCCCC1=C(C)C(=O)CCC1(C)C` [Compound 17, 3-(13-ethoxytridecyl)-2,4,4-trimethylcyclohex-2-en-1-one], the viability at 1 µM turned out to be 99%, the viability at 3 µM was found to be 105%, the viability at 5 µM is 97% and the viability at 10 µM came to 104%. In addition, the viability at 30 µM came out at 72% and the viability at 100 µM is 81%.

Consider `CNC(=O)CCCCCCCCCCCCCCC1=C(C)C(=O)CCC1(C)C` [Compound 33, N-methyl-15-(2,6,6-trimethyl-3-oxocyclohex-1-en-1-yl)pentadecanamide], for which the viability at 1 µM is 92%, the viability at 3 µM was determined as 90%, the viability at 5 µM is 83% and the viability at 10 µM is 86%. The viability at 30 µM worked out at 91% and the viability at 100 µM came out at 80%.

As to `COCCCCCCCCCCCCCCCC1=C(C)C(O)CCC1(C)C` (stereo not drawn) [Compound 65, 3-(15-methoxypentadecyl)-2,4,4-trimethylcyclohex-2-en-1-ol], the Number of cells was determined as 1.05 (1 μM compound); 1.09 (3 μM compound); 0.86 (5 μM compound); 0.87 (10 μM compound); 1.05 (30 μM compound); 1.09 (100 μM compound).

Consider `COCCCCCCCCCCCCCCCC1=C(C)C(=NO)CCC1(C)C` [Compound 67, 3-(15-methoxypentadecyl)-2,4,4-trimethylcyclohex-2-en-1-one oxime], for which the Number of cells reads like this: (1 μM compound) 0.92; (3 μM compound) 0.89; (5 μM compound) 0.80; (10 μM compound) 0.75; (30 μM compound) 0.94; (100 μM compound) 0.93.

Regarding `CC1=C(CCCCCCCCCCCCO)C(C)(C)CCC1=O` [Compound 1, 3-(12-hydroxydodecyl)-2,4,4-trimethylcyclohex-2-en-1-one, reference compound], the viability at 1 µM is 103%, the viability at 3 µM is 105%, the viability at 5 µM turned out to be 99% and the viability at 10 µM came to 103%. The viability at 30 µM was found to be 99% and the viability at 100 µM is 9%.

`CC1=C(CCCCCCCCCCCCCCCOC2CCCCO2)C(C)(C)CCC1=O` (stereo not drawn) [Compound 6, 2,4,4-trimethyl-3-(15-((tetrahydro-2H-pyran-2-yl)oxy)pentadecyl)cyclohex-2-en-1-one, reference compound]: the viability at 1 µM turned out to be 97%, the viability at 3 µM came out at 85%, the viability at 5 µM came to 67% and the viability at 10 µM is 64%. Further, the viability at 30 µM came to 72% and the viability at 100 µM worked out at 92%.
